Source: article PMC3399817 (PLoS ONE, 2012)

Columns and labels:
Test in all cases: KINOMEscan
Format in all cases: binding
[1] = molecular target: T1, ABL1(F317I)-nonphosphorylated (Homo sapiens, UniProt P00519, F317I); conditions: 1 uM
T1 construct: purchased Ambit KINOMEscan (DiscoverX)
In short: (§1)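 Compounds were each tested at a single concentration of 1 μM in a binding-based kinase panel.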

[2] = molecular target: T2, BIKE (Homo sapiens, UniProt Q9NSY1); conditions: 1 uM
T2 construct: purchased Ambit KINOMEscan (DiscoverX)
In short: as §1

[3] = molecular target: T3, BTK (Homo sapiens, UniProt Q06187); conditions: 1 uM
T3 construct: purchased Ambit KINOMEscan (DiscoverX)
T3 sequence (Q06187 whole entry): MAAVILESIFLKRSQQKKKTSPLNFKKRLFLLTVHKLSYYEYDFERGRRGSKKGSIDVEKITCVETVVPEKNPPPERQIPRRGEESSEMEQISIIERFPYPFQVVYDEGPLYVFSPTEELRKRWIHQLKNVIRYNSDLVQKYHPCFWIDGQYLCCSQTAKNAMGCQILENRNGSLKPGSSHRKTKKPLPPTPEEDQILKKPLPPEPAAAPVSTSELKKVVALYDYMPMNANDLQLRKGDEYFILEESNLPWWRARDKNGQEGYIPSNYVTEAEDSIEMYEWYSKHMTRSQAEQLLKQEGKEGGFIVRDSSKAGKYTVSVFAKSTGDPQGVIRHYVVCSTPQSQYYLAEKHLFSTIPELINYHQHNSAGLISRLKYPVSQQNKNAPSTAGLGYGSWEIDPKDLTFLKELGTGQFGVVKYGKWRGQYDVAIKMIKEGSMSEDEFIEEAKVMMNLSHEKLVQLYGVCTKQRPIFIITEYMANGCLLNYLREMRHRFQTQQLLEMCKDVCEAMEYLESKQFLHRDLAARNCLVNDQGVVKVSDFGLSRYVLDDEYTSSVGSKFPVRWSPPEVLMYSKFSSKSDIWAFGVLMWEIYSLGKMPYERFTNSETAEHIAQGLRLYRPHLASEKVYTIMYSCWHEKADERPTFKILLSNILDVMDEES
In short: as §1

[4] = molecular target: T4, CAMK1D (Homo sapiens, UniProt Q8IU85); conditions: 1 uM
T4 construct: purchased Ambit KINOMEscan (DiscoverX)
In short: as §1

[5] = molecular target: T5, CAMK1G (Homo sapiens, UniProt Q96NX5); conditions: 1 uM
T5 construct: purchased Ambit KINOMEscan (DiscoverX)
In short: as §1

[6] = molecular target: T6, CDK7 (Homo sapiens, UniProt P50613); conditions: CDK7, 1 uM
T6 construct: purchased Ambit KINOMEscan (DiscoverX)
T6 sequence (P50613 whole entry): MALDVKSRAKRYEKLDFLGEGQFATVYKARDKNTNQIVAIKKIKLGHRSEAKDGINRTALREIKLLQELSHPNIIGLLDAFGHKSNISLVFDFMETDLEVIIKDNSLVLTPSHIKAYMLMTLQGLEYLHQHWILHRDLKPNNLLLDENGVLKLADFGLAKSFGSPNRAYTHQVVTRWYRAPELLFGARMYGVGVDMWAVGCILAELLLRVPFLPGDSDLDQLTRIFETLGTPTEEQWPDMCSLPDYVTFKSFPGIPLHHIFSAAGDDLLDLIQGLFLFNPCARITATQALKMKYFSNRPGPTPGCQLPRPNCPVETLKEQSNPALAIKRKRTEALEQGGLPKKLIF
In short: as §1

[7] = molecular target: T7, CSK (Homo sapiens, UniProt P41240); conditions: 1 uM
T7 construct: purchased Ambit KINOMEscan (DiscoverX)
T7 sequence (P41240 whole entry): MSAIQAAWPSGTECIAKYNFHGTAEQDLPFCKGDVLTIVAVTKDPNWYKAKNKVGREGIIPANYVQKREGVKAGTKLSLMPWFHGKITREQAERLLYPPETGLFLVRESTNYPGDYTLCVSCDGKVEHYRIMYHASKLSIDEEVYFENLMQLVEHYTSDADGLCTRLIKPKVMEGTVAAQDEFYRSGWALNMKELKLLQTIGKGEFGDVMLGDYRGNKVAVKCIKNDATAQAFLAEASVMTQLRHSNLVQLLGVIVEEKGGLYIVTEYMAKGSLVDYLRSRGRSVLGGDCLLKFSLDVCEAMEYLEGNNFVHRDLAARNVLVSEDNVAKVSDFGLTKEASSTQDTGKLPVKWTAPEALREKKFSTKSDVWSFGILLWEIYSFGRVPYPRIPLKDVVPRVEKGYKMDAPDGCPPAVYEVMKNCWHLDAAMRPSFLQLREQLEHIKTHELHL
In short: as §1

[8] = molecular target: T8, CSNK1G2 (Homo sapiens, UniProt P78368); conditions: CSNK1G2, 1 uM
T8 construct: purchased Ambit KINOMEscan (DiscoverX)
T8 sequence (P78368 whole entry): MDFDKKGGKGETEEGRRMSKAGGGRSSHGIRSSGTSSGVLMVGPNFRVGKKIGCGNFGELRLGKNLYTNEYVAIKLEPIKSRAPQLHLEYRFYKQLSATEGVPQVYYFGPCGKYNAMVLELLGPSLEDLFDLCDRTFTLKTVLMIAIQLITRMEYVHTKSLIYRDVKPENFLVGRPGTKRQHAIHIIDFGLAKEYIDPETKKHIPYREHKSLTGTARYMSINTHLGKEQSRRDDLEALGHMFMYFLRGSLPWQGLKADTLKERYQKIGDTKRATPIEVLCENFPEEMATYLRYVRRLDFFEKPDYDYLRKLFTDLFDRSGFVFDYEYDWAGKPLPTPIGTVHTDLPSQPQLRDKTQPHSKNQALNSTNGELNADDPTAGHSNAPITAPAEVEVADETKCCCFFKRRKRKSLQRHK
In short: as §1

[9] = molecular target: T9, DCAMKL1 (Homo sapiens, UniProt O15075); conditions: DCAMKL1, 1 uM
T9 construct: purchased Ambit KINOMEscan (DiscoverX)
T9 sequence (O15075 whole entry): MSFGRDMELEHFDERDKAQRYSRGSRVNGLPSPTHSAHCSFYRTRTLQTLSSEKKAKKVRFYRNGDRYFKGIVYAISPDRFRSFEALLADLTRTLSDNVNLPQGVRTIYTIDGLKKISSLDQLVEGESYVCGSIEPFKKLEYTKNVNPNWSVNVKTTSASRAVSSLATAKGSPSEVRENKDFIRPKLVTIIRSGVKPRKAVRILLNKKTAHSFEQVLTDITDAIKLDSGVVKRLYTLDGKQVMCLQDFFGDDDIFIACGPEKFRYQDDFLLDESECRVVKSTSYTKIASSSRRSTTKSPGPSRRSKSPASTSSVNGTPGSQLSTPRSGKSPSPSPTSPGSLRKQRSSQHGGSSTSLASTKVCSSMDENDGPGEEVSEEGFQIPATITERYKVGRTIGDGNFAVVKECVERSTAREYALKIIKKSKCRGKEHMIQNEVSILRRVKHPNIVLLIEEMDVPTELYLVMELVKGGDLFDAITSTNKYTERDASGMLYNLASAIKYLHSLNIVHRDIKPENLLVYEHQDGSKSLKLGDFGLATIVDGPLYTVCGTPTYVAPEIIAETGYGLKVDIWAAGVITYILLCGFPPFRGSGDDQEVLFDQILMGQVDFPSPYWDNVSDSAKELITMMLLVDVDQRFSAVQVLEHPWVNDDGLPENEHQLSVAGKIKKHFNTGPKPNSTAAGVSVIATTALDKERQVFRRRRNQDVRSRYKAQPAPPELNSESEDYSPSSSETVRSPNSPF
In short: as §1

[10] = molecular target: T10, DMPK2 (Homo sapiens, UniProt Q6DT37); conditions: DMPK2, 1 uM
T10 construct: purchased Ambit KINOMEscan (DiscoverX)
In short: as §1

[11] = molecular target: T11, EGFR(E746-A750del) (Homo sapiens, UniProt P00533, DEL746-750); conditions: 1 uM
T11 construct: purchased Ambit KINOMEscan (DiscoverX)
In short: as §1

[12] = molecular target: T12, EPHA3 (Homo sapiens, UniProt P29320); conditions: EPHA3, 1 uM
T12 construct: purchased Ambit KINOMEscan (DiscoverX)
In short: as §1

[13] = molecular target: T13, EPHA6 (Homo sapiens, UniProt Q9UF33); conditions: EPHA6, 1 uM
T13 construct: purchased Ambit KINOMEscan (DiscoverX)
T13 sequence (Q9UF33 23-1036): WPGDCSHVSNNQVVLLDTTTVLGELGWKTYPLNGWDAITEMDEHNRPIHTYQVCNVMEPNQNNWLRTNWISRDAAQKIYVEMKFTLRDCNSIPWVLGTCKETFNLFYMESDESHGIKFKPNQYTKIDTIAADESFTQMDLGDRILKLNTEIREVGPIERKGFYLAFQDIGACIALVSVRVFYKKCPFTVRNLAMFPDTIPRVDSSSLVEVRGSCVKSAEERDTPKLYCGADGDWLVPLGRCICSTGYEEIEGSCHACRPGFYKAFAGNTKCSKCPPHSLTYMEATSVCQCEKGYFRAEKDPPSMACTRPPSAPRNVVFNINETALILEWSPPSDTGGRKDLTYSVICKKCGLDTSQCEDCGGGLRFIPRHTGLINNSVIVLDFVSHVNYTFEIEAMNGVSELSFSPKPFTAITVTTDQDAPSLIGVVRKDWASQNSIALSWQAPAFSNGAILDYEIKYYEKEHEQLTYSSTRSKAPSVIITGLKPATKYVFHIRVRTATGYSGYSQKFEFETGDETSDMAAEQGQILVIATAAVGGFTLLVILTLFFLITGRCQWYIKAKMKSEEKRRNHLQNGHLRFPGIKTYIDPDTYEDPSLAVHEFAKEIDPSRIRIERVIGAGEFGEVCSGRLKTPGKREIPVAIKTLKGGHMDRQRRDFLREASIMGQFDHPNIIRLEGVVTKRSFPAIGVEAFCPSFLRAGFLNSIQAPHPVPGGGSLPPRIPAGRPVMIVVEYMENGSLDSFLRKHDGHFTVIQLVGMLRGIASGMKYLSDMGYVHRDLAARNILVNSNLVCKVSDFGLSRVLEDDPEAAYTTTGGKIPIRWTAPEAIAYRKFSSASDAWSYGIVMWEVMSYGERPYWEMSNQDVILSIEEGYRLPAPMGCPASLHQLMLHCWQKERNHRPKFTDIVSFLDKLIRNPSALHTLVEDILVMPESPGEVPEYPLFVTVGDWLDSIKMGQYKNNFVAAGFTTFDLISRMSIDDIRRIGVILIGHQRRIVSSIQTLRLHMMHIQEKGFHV
In short: as §1

[14] = molecular target: T14, EPHA8 (Homo sapiens, UniProt P29322); conditions: EPHA8, 1 uM
T14 construct: purchased Ambit KINOMEscan (DiscoverX)
In short: as §1

[15] = molecular target: T15, GCN2(Kin.Dom.2,S808G) (Homo sapiens, UniProt Q9P2K8, S808G); conditions: 1 uM
T15 construct: GCN2(Kin.Dom.2,S808G); purchased Ambit KINOMEscan (DiscoverX)
In short: as §1

[16] = molecular target: T16, HIPK2 (Homo sapiens, UniProt Q9H2X6); conditions: for % binding compared to no inhibitor control: HIPK2, 1 uM
T16 construct: purchased Ambit KINOMEscan (DiscoverX)
T16 sequence (Q9H2X6 whole entry): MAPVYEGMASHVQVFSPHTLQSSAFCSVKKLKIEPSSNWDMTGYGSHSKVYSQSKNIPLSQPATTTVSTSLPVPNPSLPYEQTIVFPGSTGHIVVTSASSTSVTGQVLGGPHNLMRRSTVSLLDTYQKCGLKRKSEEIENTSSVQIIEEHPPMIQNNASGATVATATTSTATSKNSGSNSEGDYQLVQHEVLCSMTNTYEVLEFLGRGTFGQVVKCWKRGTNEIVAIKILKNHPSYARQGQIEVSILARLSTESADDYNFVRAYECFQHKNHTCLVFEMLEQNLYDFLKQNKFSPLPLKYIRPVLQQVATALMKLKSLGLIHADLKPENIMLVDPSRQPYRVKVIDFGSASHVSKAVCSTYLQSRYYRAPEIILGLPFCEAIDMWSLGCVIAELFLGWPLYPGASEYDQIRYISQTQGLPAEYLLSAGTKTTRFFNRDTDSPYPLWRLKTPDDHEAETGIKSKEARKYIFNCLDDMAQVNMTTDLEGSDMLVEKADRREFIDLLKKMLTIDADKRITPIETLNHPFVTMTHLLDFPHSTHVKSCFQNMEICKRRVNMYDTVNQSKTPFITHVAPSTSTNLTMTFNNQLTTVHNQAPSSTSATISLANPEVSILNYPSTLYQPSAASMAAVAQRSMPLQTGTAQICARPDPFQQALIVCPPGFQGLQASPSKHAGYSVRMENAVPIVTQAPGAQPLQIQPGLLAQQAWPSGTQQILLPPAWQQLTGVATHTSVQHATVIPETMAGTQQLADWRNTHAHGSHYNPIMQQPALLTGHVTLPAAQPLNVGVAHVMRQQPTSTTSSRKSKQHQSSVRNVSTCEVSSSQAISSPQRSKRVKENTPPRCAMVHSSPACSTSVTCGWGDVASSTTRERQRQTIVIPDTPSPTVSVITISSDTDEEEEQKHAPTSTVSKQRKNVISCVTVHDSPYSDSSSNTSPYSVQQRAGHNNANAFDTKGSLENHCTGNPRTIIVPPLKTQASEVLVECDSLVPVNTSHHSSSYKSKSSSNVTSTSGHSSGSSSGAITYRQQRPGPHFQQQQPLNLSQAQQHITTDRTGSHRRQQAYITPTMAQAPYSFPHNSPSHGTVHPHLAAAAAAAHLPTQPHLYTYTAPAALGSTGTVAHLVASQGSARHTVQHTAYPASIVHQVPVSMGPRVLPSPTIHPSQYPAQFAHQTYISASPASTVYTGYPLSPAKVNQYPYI
In short: as §1

[17] = molecular target: T17, IKK-alpha (Homo sapiens, UniProt O15111); conditions: 1 uM
T17 construct: purchased Ambit KINOMEscan (DiscoverX)
In short: as §1

[18] = molecular target: T18, LZK (Homo sapiens, UniProt O43283); conditions: 1 uM
T18 construct: purchased Ambit KINOMEscan (DiscoverX)
In short: as §1

[19] = molecular target: T19, MAP3K2 (Homo sapiens, UniProt Q9Y2U5); conditions: MAP3K2, 1 uM
T19 construct: purchased Ambit KINOMEscan (DiscoverX)
In short: as §1

[20] = molecular target: T20, MAP4K3 (Homo sapiens, UniProt Q8IVH8); conditions: MAP4K3, 1 uM
T20 construct: purchased Ambit KINOMEscan (DiscoverX)
In short: as §1

[21] = molecular target: T21, MARK2 (Homo sapiens, UniProt Q7KZI7); conditions: MARK2, 1 uM
T21 construct: purchased Ambit KINOMEscan (DiscoverX)
In short: as §1

[22] = molecular target: T22, MEK2 (Homo sapiens, UniProt P36507); conditions: MEK2, 1 uM
T22 construct: purchased Ambit KINOMEscan (DiscoverX)
In short: as §1

[23] = molecular target: T23, MELK (Homo sapiens, UniProt Q14680); conditions: 1 uM
T23 construct: purchased Ambit KINOMEscan (DiscoverX)
In short: as §1

[24] = molecular target: T24, MKNK2 (Homo sapiens, UniProt Q9HBH9); conditions: MKNK2, 1 uM
T24 construct: purchased Ambit KINOMEscan (DiscoverX)
In short: as §1

[25] = molecular target: T25, MLK1 (Homo sapiens, UniProt P80192); conditions: MLK1, 1 uM
T25 construct: purchased Ambit KINOMEscan (DiscoverX)
In short: as §1

[26] = molecular target: T26, PCTK1 (Homo sapiens, UniProt Q00536); conditions: PCTK1, 1 uM
T26 construct: purchased Ambit KINOMEscan (DiscoverX)
In short: as §1

[27] = molecular target: T27, PCTK2 (Homo sapiens, UniProt Q00537); conditions: PCTK2, 1 uM
T27 construct: purchased Ambit KINOMEscan (DiscoverX)
In short: as §1

[28] = molecular target: T28, PCTK3 (Homo sapiens, UniProt Q07002); conditions: PCTK3, 1 uM
T28 construct: purchased Ambit KINOMEscan (DiscoverX)
In short: as §1

[29] = molecular target: T29, PIK3CA(E545A) (Homo sapiens, UniProt P42336, E545A); conditions: 1 uM
T29 construct: purchased Ambit KINOMEscan (DiscoverX)
In short: as §1

[30] = molecular target: T30, PIK3CD (Homo sapiens, UniProt O00329); conditions: 1 uM
T30 construct: purchased Ambit KINOMEscan (DiscoverX)
In short: as §1

[31] = molecular target: T31, PIP5K1A (Homo sapiens, UniProt Q99755); conditions: 1 uM
T31 construct: purchased Ambit KINOMEscan (DiscoverX)
In short: as §1

[32] = molecular target: T32, PIP5K2B (Homo sapiens, UniProt P78356); conditions: 1 uM
T32 construct: purchased Ambit KINOMEscan (DiscoverX)
In short: as §1

[33] = molecular target: T33, PKN2 (Homo sapiens, UniProt Q16513); conditions: PKN2, 1 uM
T33 construct: purchased Ambit KINOMEscan (DiscoverX)
In short: as §1

[34] = molecular target: T34, PRKD3 (Homo sapiens, UniProt O94806); conditions: PRKD3, 1 uM
T34 construct: purchased Ambit KINOMEscan (DiscoverX)
In short: as §1

[35] = molecular target: T35, RIOK2 (Homo sapiens, UniProt Q9BVS4); conditions: RIOK2, 1 uM
T35 construct: purchased Ambit KINOMEscan (DiscoverX)
In short: as §1

[36] = molecular target: T36, TNIK (Homo sapiens, UniProt Q9UKE5); conditions: 1 uM
T36 construct: purchased Ambit KINOMEscan (DiscoverX)
In short: as §1

[37] = molecular target: T37, TRKC (Homo sapiens, UniProt Q16288); conditions: 1 uM
T37 construct: purchased Ambit KINOMEscan (DiscoverX)
In short: as §1

[38] = molecular target: T38, YANK3 (Homo sapiens, UniProt Q86UX6); conditions: YANK3, 1 uM
T38 construct: purchased Ambit KINOMEscan (DiscoverX)
In short: as §1

[39] = molecular target: T39, ZAP70 (Homo sapiens, UniProt P43403); conditions: ZAP70, 1 uM
T39 construct: purchased Ambit KINOMEscan (DiscoverX)
In short: as §1

Compound | % binding compared to no inhibitor control [1] [%] | % binding compared to no inhibitor control [2] [%] | % binding compared to no inhibitor control [3] [%] | % binding compared to no inhibitor control [4] [%] | % binding compared to no inhibitor control [5] [%] | % binding compared to no inhibitor control [6] [%] | % binding compared to no inhibitor control [7] [%] | % binding compared to no inhibitor control [8] [%] | % binding compared to no inhibitor control [9] [%] | % binding compared to no inhibitor control [10] [%] | % binding compared to no inhibitor control [11] [%] | % binding compared to no inhibitor control [12] [%] | % binding compared to no inhibitor control [13] [%] | % binding compared to no inhibitor control [14] [%] | % binding compared to no inhibitor control [15] [%] | % binding compared to no inhibitor control [16] [%] | % binding compared to no inhibitor control [17] [%] | % binding compared to no inhibitor control [18] [%] | % binding compared to no inhibitor control [19] [%] | % binding compared to no inhibitor control [20] [%] | further results
COc1ccc(-c2cc3nccn3c(Nc3ncccc3C(N)=O)n2)cc1OC.Cl.Cl [BAY61-3606, 2-[7-(3,4-dimethoxyphenyl)-imidazo [1,2-c]pyrimidin-5-ylamino] nicotinamide dihydrochloride, reference compound] | 100 | 22 | 50 | 72 | 82 | 33 | 68 | 100 | 93 | 86 | 49 | 83 | 97 | 83 | 54 | 9 | 0.25 | 64 | 55 | 97 | % inhibition ATP binding ([16]; HIPK2, KINOMEscan, 1 μM): 91%; % binding compared to no inhibitor control [21]: 63%; % binding compared to no inhibitor control [22]: 86%; % binding compared to no inhibitor control [23]: 87%; % binding compared to no inhibitor control [24]: 1.7%; % binding compared to no inhibitor control [25]: 100%; % binding compared to no inhibitor control [26]: 86%; % binding compared to no inhibitor control [27]: 100%; % binding compared to no inhibitor control [28]: 92%; % binding compared to no inhibitor control [29]: 90%; % binding compared to no inhibitor control [30]: 81%; % binding compared to no inhibitor control [31]: 64%; % binding compared to no inhibitor control [32]: 100%; % binding compared to no inhibitor control [33]: 34%; % binding compared to no inhibitor control [34]: 37%; % binding compared to no inhibitor control [35]: 4%; % binding compared to no inhibitor control [36]: 69%; % binding compared to no inhibitor control [37]: 92%; % binding compared to no inhibitor control [38]: 53%; % binding compared to no inhibitor control [39]: 9%
COc1ccccc1Nc1nc(-c2ccc(OC)c(OC)c2)cc2nccn12 [BAY derivative 6] | 100 | 53 | 60 | 100 | 98 | 100 | 99 | 100 | 87 | 88 | 75 | 100 | 100 | 100 | 99 | 100 | 100 | 100 | 88 | 100 | % binding compared to no inhibitor control [21]: 65%; % binding compared to no inhibitor control [22]: 100%; % binding compared to no inhibitor control [23]: 91%; % binding compared to no inhibitor control [24]: 100%; % binding compared to no inhibitor control [25]: 100%; % binding compared to no inhibitor control [26]: 100%; % binding compared to no inhibitor control [27]: 100%; % binding compared to no inhibitor control [28]: 100%; % binding compared to no inhibitor control [29]: 100%; % binding compared to no inhibitor control [30]: 100%; % binding compared to no inhibitor control [31]: 86%; % binding compared to no inhibitor control [32]: 100%; % binding compared to no inhibitor control [33]: 91%; % binding compared to no inhibitor control [34]: 100%; % binding compared to no inhibitor control [35]: 80%; % binding compared to no inhibitor control [36]: 98%; % binding compared to no inhibitor control [37]: 98%; % binding compared to no inhibitor control [38]: 100%; % binding compared to no inhibitor control [39]: 100%
